The text below walks through data of ChEMBL document CHEMBL1139156, “Novel naphthyridines are histamine H3 antagonists and serotonin reuptake transporter inhibitors” (Bioorg Med Chem Lett, 2007).

Series [1] has as its target T1, Histamine H3 receptor (Homo sapiens, UniProt Q9Y5N1). The series can be described thus: Antagonist activity at human histamine H3 receptor expressed in SK-N-MC cells assessed as effect on cAMP accumulation. In kind it is functional, cell-based. The conditions noted are these: read-out: pA2 (converted).
Series [2] addresses Sodium-dependent serotonin transporter (Homo sapiens, UniProt P31645). The series can be described thus: Binding affinity to human SERT.
The target of series [3] is T1, Histamine H3 receptor. The series can be described thus: Displacement of N-[3H]alpha-methylhistamine from human histamine H3 receptor expressed in SK-N-MC cells. In kind it is cell-based.
Series [4] in a line: Cmax in rat plasma at 10 mg/kg, po after 1 hr. The format is ADME, organism-based. On the set-up: dose 10 mg/kg, route oral.
Series [5] in a line: Cmax in rat brain at 10 mg/kg, po after 6 hrs. In kind it is ADME, organism-based. Details: dose 10 mg/kg, route oral.
Series [6] in a line: Drug level in rat brain at 10 mg/kg, po after 24 hrs. Details: dose 10 mg/kg, route oral. Conditions: read-out: Drug uptake. In kind it is ADME, organism-based.
Series [7] addresses Sodium-dependent serotonin transporter (Rattus norvegicus, UniProt P31652). The series can be described thus: Binding affinity to rat SERT.

Some results are limits rather than exact numbers.

T1 sequence (Q9Y5N1 whole entry): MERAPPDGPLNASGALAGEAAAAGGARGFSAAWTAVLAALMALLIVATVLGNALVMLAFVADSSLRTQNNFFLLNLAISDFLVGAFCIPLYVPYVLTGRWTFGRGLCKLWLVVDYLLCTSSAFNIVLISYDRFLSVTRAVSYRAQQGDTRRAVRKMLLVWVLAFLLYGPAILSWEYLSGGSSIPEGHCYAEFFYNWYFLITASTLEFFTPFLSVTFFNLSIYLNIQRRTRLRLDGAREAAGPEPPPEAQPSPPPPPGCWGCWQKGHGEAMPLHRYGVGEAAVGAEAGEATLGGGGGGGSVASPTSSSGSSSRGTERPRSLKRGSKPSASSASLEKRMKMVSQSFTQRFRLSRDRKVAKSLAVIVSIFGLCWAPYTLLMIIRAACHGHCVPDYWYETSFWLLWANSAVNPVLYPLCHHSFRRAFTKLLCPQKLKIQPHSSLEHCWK
Chain of Sodium-dependent serotonin transporter (Rattus norvegicus, UniProt P31652) (P31652 whole entry): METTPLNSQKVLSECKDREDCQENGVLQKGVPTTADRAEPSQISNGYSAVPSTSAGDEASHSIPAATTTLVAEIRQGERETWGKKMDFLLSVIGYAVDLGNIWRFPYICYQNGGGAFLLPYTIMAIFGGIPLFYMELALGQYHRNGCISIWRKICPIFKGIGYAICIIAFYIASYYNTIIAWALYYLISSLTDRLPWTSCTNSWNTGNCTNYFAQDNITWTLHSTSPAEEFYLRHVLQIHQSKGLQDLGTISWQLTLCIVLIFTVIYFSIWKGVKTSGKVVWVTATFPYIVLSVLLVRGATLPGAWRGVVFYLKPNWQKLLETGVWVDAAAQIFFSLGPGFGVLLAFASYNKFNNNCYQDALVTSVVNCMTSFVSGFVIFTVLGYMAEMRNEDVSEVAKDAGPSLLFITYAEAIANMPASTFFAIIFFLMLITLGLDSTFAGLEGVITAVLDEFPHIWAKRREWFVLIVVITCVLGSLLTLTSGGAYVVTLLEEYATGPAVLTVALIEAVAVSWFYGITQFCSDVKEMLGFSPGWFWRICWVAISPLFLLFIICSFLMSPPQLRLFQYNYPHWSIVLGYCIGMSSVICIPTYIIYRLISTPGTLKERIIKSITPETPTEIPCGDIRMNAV
Chain of Sodium-dependent serotonin transporter (Homo sapiens, UniProt P31645) (P31645 whole entry): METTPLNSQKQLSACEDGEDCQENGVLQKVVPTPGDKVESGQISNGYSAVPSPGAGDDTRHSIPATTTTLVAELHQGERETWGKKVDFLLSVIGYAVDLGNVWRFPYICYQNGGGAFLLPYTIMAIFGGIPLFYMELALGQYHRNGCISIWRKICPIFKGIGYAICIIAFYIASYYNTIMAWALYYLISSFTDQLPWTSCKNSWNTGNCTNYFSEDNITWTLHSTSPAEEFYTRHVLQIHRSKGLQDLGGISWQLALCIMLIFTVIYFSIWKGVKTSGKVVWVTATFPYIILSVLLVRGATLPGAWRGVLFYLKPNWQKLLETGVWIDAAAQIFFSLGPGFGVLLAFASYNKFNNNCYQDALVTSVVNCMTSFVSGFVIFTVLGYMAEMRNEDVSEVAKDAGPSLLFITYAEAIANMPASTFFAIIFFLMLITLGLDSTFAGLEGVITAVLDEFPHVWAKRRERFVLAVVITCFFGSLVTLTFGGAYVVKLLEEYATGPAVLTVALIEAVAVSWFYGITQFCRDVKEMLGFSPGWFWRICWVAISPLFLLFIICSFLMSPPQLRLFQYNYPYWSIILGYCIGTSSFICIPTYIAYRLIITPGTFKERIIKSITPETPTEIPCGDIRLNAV

Turning to `CN1Cc2cc(OCCCN3CCCCC3)ncc2C(c2ccccc2)C1` (centres undefined), in series [1], the Kb was 21.4 nM. As to `c1ccc(C2CNCc3cc(OCCCN4CCCCC4)ncc32)cc1` (centres undefined), the Kb in series [1] was 0.724 nM. The same measure, in the same setting: the result for `CN1Cc2cc(OCCCN3CCCCC3)ncc2C(c2ccccc2F)C1` (centres undefined) reads 1.05 nM; that for `CN1Cc2cc(OCCCN3CCCCC3)ncc2C(c2ccc(Cl)c(Cl)c2)C1` (centres undefined), 18.2 nM; that for `COc1ccc(C2CN(C)Cc3cc(OCCCN4CCOCC4)ncc32)cc1` (centres undefined), 11.7 nM. As for `c1ccc(C2CNCc3cc(OCCCN4CCOCC4)ncc32)cc1` (centres undefined), the Ki (commonly a dissociation constant, usually derived from enzyme kinetics or from competition with a known ligand) in series [2] was determined as 4770 nM; in series [3], 13 nM. Besides, the maximum concentration (Cmax) (usually the peak of the concentration-time curve) in series [4] came to 220 nM; in series [5], 5560 nM. For the same molecule, the concentration at 24 h in series [6] is more than 600 nM. `CC(C)N1CCC(COc2cc3c(cn2)C(c2ccc(Cl)c(Cl)c2)CNC3)CC1` (centres undefined): the Ki in series [7] stood at 18 nM; in series [2], 37 nM; in series [3], 13 nM.

With `COc1ccc(C2CNCc3cc(OCCCN4CCCCC4)ncc32)cc1` (centres undefined), the affinity in series [7], expressed as Ki, was 46 nM. In addition, the Kb in series [1] is 5.89 nM. Take `Clc1ccc(C2CNCc3cc(OCCCN4CCCCC4)ncc32)cc1` (centres undefined): the Kb in series [1] is 3.89 nM. Regarding `CCN(CC)CCCOc1cc2c(cn1)C(c1ccc(Cl)c(Cl)c1)CNC2` (centres undefined), in series [1], the Kb was 14.1 nM. For the molecule `CN1Cc2cc(OCCCN3CCCCC3)ncc2C(c2ccc(F)cc2)C1` (centres undefined), in series [1], the Kb is 3.55 nM. Still for that read-out and setting: the result for `Clc1ccccc1C1CNCc2cc(OCCCN3CCCCC3)ncc21` (centres undefined) reads 1.05 nM. Still for that read-out and setting: the result for `CN1Cc2cc(OCCCN3CCCCC3)ncc2C(c2cccc(Cl)c2)C1` (centres undefined) reads 9.77 nM; that for `COc1ccc(C2CNCc3cc(OCC4CCN(C(C)C)CC4)ncc32)cc1` (centres undefined), 3.55 nM. `CN1Cc2cc(OCCCN3CCCCC3)ncc2C(c2ccc(Cl)c(F)c2)C1` (centres undefined): the inhibitory constant (Ki) in series [7] worked out at 26 nM; in series [2] it was 147 nM; in series [3] it was 7 nM. Further, the Kb in series [1] was 16.6 nM. In series [2], `Clc1ccc(C2CNCc3cc(OCCCN4CCCCC4)ncc32)cc1Cl` (centres undefined) had an inhibition constant (Ki) of 32 nM. Also, the Kb in series [1] was 11.2 nM. For the molecule `CCN(CC)CCCOc1cc2c(cn1)C(c1ccccc1)CN(C)C2` (centres undefined), in series [1], the Kb was 0.661 nM. In the case of `COc1cccc(C2CN(C)Cc3cc(OCCCN4CCCCC4)ncc32)c1` (centres undefined), the Kb in series [1] was 25.7 nM.
